Results from ChEMBL document CHEMBL3865823, “Ameliorative effects of amide derivatives of 1,3,4-thiadiazoles on scopolamine induced cognitive dysfunction” (Eur J Med Chem, 2016).
pIC50, pKi: −log10 of the molar value.

Experiments:
[1] = tested on: Mus musculus; test: Antiamnesic activity against scopolamine-induced memory loss in albino mouse assessed as number of mistakes at 0.5 mg/kg, ip administered 5 mins post scopolamine-challenge and 35 mins prior to training by passive avoidance test (reference value: 12.25 +/- 0.47); format: functional
[2] = tested on: Mus musculus; test: Neuroprotective activity against scopolamine-induced oxidative damage in albino mouse assessed as lipid peroxidation in brain by measuring MDA level per mg protein at 0.5 mg/kg, ip administered 5 mins post scopolamine-challenge by TBARS assay (reference value: 2.73 +/- 0.36 mol); format: functional
[3] = tested on: Mus musculus; test: Antiamnesic activity against scopolamine-induced memory loss in albino mouse assessed as escape latency time at 0.5 mg/kg, ip administered 5 mins post scopolamine-challenge and 35 mins prior to training measured on day 3 by Morris water maze test (reference value: 88.33 +/- 0.95 sec); format: functional
[4] = tested on: Mus musculus; test: Neuroprotective activity against scopolamine-induced oxidative damage in albino mouse assessed as catalase activity by measuring H2O2 decomposition per mg of protein at 0.5 mg/kg, ip administered 5 mins post scopolamine-challenge (reference value: 1.37 +/- 0.25 micromol/min); format: functional
[5] = tested on: Mus musculus; test: Antiamnesic activity against scopolamine-induced memory loss in albino mouse assessed as basal latency to reach shock free zone at 0.5 mg/kg, ip administered 5 mins post scopolamine-challengen and 35 mins prior to training by passive avoidance test (reference value: 40.25 +/- 2.84 sec); format: functional
[6] = tested on: Mus musculus; test: Antiamnesic activity against scopolamine-induced memory loss in albino mouse assessed as escape latency time at 0.5 mg/kg, ip administered 5 mins post scopolamine-challenge and 35 mins prior to training measured on day 1 by Morris water maze test (reference value: 89.67 +/- 0.23 sec); format: functional
[7] = tested on: Mus musculus; test: Antiamnesic activity against scopolamine-induced memory loss in albino mouse assessed as escape latency time at 0.5 mg/kg, ip administered 5 mins post scopolamine-challenge and 35 mins prior to training measured on day 2 by Morris water maze test (reference value: 89.41 +/- 0.39 sec); format: functional
[8] = tested on: Mus musculus; test: Neuroprotective activity against scopolamine-induced oxidative damage in albino mouse assessed as superoxide dismutase level in brain at 0.5 mg/kg, ip administered 5 mins post scopolamine-challenge measured at every 30 to 60 secs interval for 2 mins by NBT reduction assay (reference value: 0.17 +/- 0.03 U/mg); format: functional
[9] = tested on: Mus musculus; test: Neuroprotective activity against scopolamine-induced oxidative damage in albino mouse assessed as glutathione reductase level in brain measured per mg of protein at 0.5 mg/kg, ip administered 5 mins post scopolamine-challenge by Ellamns assay (reference value: 0.008 +/- 0.001 umol); format: functional
[10] = tested on: Mus musculus; test: Antiamnesic activity against scopolamine-induced memory loss in albino mouse assessed as latency to reach shock free zone at 0.5 mg/kg, ip administered 5 mins post scopolamine-challenge and 35 mins prior to training by passive avoidance test (reference value: 53.25 +/- 1.37 sec); format: functional
[11] = molecular target: T1, Acetylcholinesterase (Mus musculus, UniProt P21836); test: Inhibition of albino mouse brain AChE using acetylthiocholine iodide as substrate measured for 2 mins by Ellmans method; format: tissue-based
T1 sequence (P21836 whole entry): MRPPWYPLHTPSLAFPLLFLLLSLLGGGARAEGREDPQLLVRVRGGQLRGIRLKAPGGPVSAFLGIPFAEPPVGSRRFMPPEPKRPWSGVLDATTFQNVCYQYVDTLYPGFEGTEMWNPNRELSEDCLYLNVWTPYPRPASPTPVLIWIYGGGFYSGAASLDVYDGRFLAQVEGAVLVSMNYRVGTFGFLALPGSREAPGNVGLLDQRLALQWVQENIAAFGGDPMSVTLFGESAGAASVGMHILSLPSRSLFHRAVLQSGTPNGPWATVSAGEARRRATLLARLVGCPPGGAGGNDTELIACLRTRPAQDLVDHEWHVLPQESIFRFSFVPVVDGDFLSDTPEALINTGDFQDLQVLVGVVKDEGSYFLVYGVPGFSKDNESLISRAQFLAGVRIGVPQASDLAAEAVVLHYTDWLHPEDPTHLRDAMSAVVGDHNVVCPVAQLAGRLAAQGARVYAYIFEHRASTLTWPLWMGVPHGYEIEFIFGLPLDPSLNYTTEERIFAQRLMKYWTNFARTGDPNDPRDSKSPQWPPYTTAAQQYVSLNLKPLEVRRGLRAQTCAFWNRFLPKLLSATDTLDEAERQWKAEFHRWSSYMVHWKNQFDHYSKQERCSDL

[12] = molecular target: T1, Acetylcholinesterase; test: Competitive inhibition of albino mouse brain AChE using acetylthiocholine iodide as substrate measured up to 2 mins by Ellmans method
[13] = tested on: Mus musculus; test: Antiamnesic activity against scopolamine-induced memory loss in albino mouse assessed as escape latency time at 0.5 mg/kg, ip administered 5 mins post scopolamine-challenge and 35 mins prior to training measured on day 4 by Morris water maze test (reference value: 87.17 +/- 1.03 sec); format: functional
[14] = tested on: Mus musculus; test: Antiamnesic activity against scopolamine-induced memory loss in albino mouse assessed as escape latency time at 0.5 mg/kg, ip administered 5 mins post scopolamine-challenge and 35 mins prior to training measured on day 5 by Morris water maze test (reference value: 84.92 +/- 1.64 sec); format: functional
[15] = tested on: Mus musculus; test: Antiamnesic activity against scopolamine-induced memory loss in albino mouse assessed as time spent in target quadrant at 0.5 mg/kg, ip administered 5 mins post scopolamine-challenge and 35 mins prior to training measured on day 5 by Morris water maze test (reference value: 4 +/- 1.15 sec); format: functional
[16] = tested on: Mus musculus; test: Inhibition of scopolamine-induced increase in AchE level in albino mouse assessed as AChE level in brain at 0.5 mg/kg, ip administered 5 mins post scopolamine-challenge using acetlythiocholine iodidie as substrate by Ellman's method (reference value: 0.011 +/- 0.0022 umol/min/mg); format: functional
[17] = tested on: Mus musculus; test: Neuroprotective activity against scopolamine-induced oxidative damage in albino mouse assessed as nitrite level in plasma at 0.5 mg/kg, ip administered 5 mins post scopolamine-challenge by Greiss assay (reference value: 483.5 +/- 27.1 ug/ml); format: functional
[18] = molecular target: T1, Acetylcholinesterase; test: Uncompetitive inhibition of albino mouse brain AChE using acetylthiocholine iodide as substrate measured up to 2 mins by Ellmans method

| SMILES | Activity [1] | Activity [2] [nmol] | Time [3] [s] | Activity [4] [µmol/min] | Time [5] [s] | Time [6] [s] | Time [7] [s] | Activity [8] [U/mg] | Activity [9] [µmol] | Time [10] [s] | pIC50 [11] | pKi [12] | Time [13] [s] | Time [14] [s] | Time [15] [s] | Activity [16] [µmol/min/mg] | Activity [17] [µg/mL] | pKi [18] |
| --- | --- | --- | --- | --- | --- | --- | --- | --- | --- | --- | --- | --- | --- | --- | --- | --- | --- | --- |
| O=C(Nc1nnc(-c2ccccc2Cl)s1)c1cc(C(F)(F)F)cc(C(F)(F)F)c1 | 3 | 0.73 | 73.75 | 2.79 | 30.75 | 89.75 | 84.25 | 5.87 | 0.016 | 4.5 | 5.56 | 6.01 | 52.92 | 21.67 | 25.33 | 0.002 | 291.8 |  |
| O=C(Nc1nnc(-c2ccccc2)s1)c1cccc(CCl)c1 |  | 0.67 |  | 2.67 |  |  |  | 5.95 | 0.012 |  | 5.39 |  |  |  |  | 0.004 | 268.5 | 6.07 |
| Cc1ccc(-c2nnc(NC(=O)c3cc(C(F)(F)F)cc(C(F)(F)F)c3)s2)cc1 |  | 1.09 |  | 2.69 |  |  |  | 5.23 | 0.012 |  | 5.15 |  |  |  |  | 0.003 | 306.5 | 5.42 |
| CC(=O)Oc1cccc(C(=O)Nc2nnc(-c3ccccc3Cl)s2)c1 | 4.25 | 0.76 | 62.33 | 2.66 | 36.33 | 88.42 | 77.83 | 5.29 | 0.013 | 4.5 | 5.52 |  | 46.83 | 23.92 | 23.33 | 0.004 | 265.5 | 6.19 |
| O=C(Nc1nnc(-c2ccccc2Cl)s1)c1cccc(CCl)c1 | 4.5 | 0.76 | 62.92 | 1.9 | 34.58 | 85.92 | 76.08 | 5.95 | 0.01 | 5.25 | 5.52 |  | 44.75 | 22.5 | 24.33 | 0.003 | 308.8 | 6.18 |
| CC(CC(=O)Nc1nnc(Cc2ccccc2)s1)CC(C)(C)C (stereo unspecified) |  |  |  |  |  |  |  |  |  |  | 4.57 |  |  |  |  |  |  | 5.40 |
| Cc1ccc(-c2nnc(NC(=O)c3cccc(CCl)c3)s2)cc1 |  |  |  |  |  |  |  |  |  |  | 4.90 | 5.42 |  |  |  |  |  |  |
| O=C(Nc1nnc(Cc2ccccc2)s1)c1cccc(CCl)c1 |  | 0.98 |  | 1.74 |  |  |  | 5.26 | 0.01 |  | 4.69 |  |  |  |  | 0.003 | 324.8 | 5.30 |
| CC(CC(=O)Nc1nnc(-c2cccc(Cl)c2)s1)CC(C)(C)C (stereo unspecified) |  |  |  |  |  |  |  |  |  |  | 4.86 |  |  |  |  |  |  | 5.57 |
| CC(=O)Oc1cccc(C(=O)Nc2nnc(-c3ccccc3)s2)c1 |  |  |  |  |  |  |  |  |  |  | 5.42 | 6.04 |  |  |  |  |  |  |
| CC(=O)Oc1cccc(C(=O)Nc2nnc(Cc3ccccc3)s2)c1 |  |  |  |  |  |  |  |  |  |  | 4.94 |  |  |  |  |  |  | 5.25 |
| Cc1ccc(-c2nnc(NC(=O)CC(C)CC(C)(C)C)s2)cc1 (stereo unspecified) |  |  |  |  |  |  |  |  |  |  | 4.63 |  |  |  |  |  |  | 5.08 |
| CC(=O)Oc1cccc(C(=O)Nc2nnc(-c3ccc(C)cc3)s2)c1 |  |  |  |  |  |  |  |  |  |  | 4.97 |  |  |  |  |  |  | 5.42 |
| CC(CC(=O)Nc1nnc(-c2ccccc2)s1)CC(C)(C)C (stereo unspecified) |  |  |  |  |  |  |  |  |  |  | 4.63 |  |  |  |  |  |  | 5.12 |
| CCN(C)C(=O)Oc1cccc([C@H](C)N(C)C)c1 [RIVASTIGMINE] | 8.75 | 2.34 | 72.92 | 1.88 | 37.08 | 89.75 | 83.83 | 4.24 | 0.014 | 12.25 |  |  | 54.58 | 34.08 | 15 | 0.005 | 418.2 |  |
